Test results as given in ChEMBL document CHEMBL1201861, “Genomics of Drug Sensitity in Cancer screening data, Wellcome Trust Sanger Institute”.

Assays:
Assay in all cases: cells
Settings in all cases: Homo sapiens
D283 Med = assay type: functional, cell-based
Description: SANGER: Inhibition of human D-283MED cell growth in a cell viability assay.

COR-L88 = assay type: functional, cell-based;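 also: growth inhibition of COR-L88 cells, read out with a cell viability assay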
Description: SANGER: Inhibition of human COR-L88 cell growth in a cell viability assay.

ML-2 = assay type: functional, cell-based;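 also: growth inhibition of ML-2 cells, measured with a cell viability readout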
Description: SANGER: Inhibition of human ML-2 cell growth in a cell viability assay.

NCI-H23 = assay type: functional, cell-based;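 also: cell viability assay measuring growth inhibition of NCI-H23 cells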
Description: SANGER: Inhibition of human NCI-H23 cell growth in a cell viability assay.

MPP-89 = assay type: functional, cell-based;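 also: growth inhibition of human MPP-89 cells, read out with a cell viability assay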
Description: SANGER: Inhibition of human MPP-89 cell growth in a cell viability assay.

PSN1 = assay type: functional, cell-based;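 also: suppression of growth of human PSN1 cells, read out by a cell viability assay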
Description: SANGER: Inhibition of human PSN1 cell growth in a cell viability assay.

HT-144 = assay type: functional, cell-based
Description: SANGER: Inhibition of human HT-144 cell growth in a cell viability assay.

LB771-HNC = assay type: functional, cell-based;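 also: growth inhibition of LB771-HNC human cells, read out with a cell viability assay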
Description: SANGER: Inhibition of human LB771-HNC cell growth in a cell viability assay.

HCE-T = assay type: functional, cell-based;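 also: cell viability assay read-out, reporting inhibition of HCE-T cell growth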
Description: SANGER: Inhibition of human HCE-T cell growth in a cell viability assay.

SNU-5 = assay type: functional, cell-based;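 also: cell viability readout used to measure growth inhibition in human NCI-SNU-5 cells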
Description: SANGER: Inhibition of human NCI-SNU-5 cell growth in a cell viability assay.

COLO-829 = assay type: functional, cell-based
Description: SANGER: Inhibition of human COLO-829 cell growth in a cell viability assay.

LU-139 = assay type: functional, cell-based
Description: SANGER: Inhibition of human LU-139 cell growth in a cell viability assay.

NCI-H2126 = assay type: functional, cell-based;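 also: growth inhibition of the cancer cell line, determined with a cell viability readout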
Description: SANGER: Inhibition of human NCI-H2126 cell growth in a cell viability assay.

OS-RC-2 = assay type: functional, cell-based;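 also: growth inhibition of human OS-RC-2 cells, measured by a cell viability assay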
Description: SANGER: Inhibition of human OS-RC-2 cell growth in a cell viability assay.

IA-LM = assay type: functional, cell-based;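 also: cell viability assay measuring growth inhibition of human IA-LM cells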
Description: SANGER: Inhibition of human IA-LM cell growth in a cell viability assay.

LS-123 = assay type: functional, cell-based
Description: SANGER: Inhibition of human LS-123 cell growth in a cell viability assay.

ES7 = assay type: functional, cell-based;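 also: growth inhibition of cultured human ES7 cells, read out as cell viability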
Description: SANGER: Inhibition of human ES7 cell growth in a cell viability assay.

CW-2 = assay type: functional, cell-based;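 also: growth inhibition of CW-2 cells, read out by a cell viability assay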
Description: SANGER: Inhibition of human CW-2 cell growth in a cell viability assay.

LB2241-RCC = assay type: functional, cell-based;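 also: cell viability assay measuring how strongly the cultured human renal carcinoma line is prevented from growing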
Description: SANGER: Inhibition of human LB2241-RCC cell growth in a cell viability assay.

NCI-H209 = assay type: functional, cell-based;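 also: growth inhibition of human NCI-H209 cells, measured by a cell viability assay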
Description: SANGER: Inhibition of human NCI-H209 cell growth in a cell viability assay.

TE-8 = assay type: functional, cell-based;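 also: growth inhibition of TE-8 cells, measured with a cell viability readout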
Description: SANGER: Inhibition of human TE-8 cell growth in a cell viability assay.

A4-Fuk = assay type: functional, cell-based;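 also: growth inhibition of A4-Fuk cells, read out by a cell viability assay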
Description: SANGER: Inhibition of human A4-Fuk cell growth in a cell viability assay.

A498 = assay type: functional, cell-based;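 also: growth inhibition of human A498 cells, read out with a cell viability assay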
Description: SANGER: Inhibition of human A498 cell growth in a cell viability assay.

NCI-H226 = assay type: functional, cell-based;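 also: cell viability read-out used to gauge growth inhibition of the cells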
Description: SANGER: Inhibition of human NCI-H226 cell growth in a cell viability assay.

SW872 = assay type: functional, cell-based;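 also: growth inhibition of SW872 cells, read out by a viability assay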
Description: SANGER: Inhibition of human SW872 cell growth in a cell viability assay.

8-MG-BA = assay type: functional, cell-based;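 also: growth inhibition of 8-MG-BA cells, read out with a cell viability assay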
Description: SANGER: Inhibition of human 8-MG-BA cell growth in a cell viability assay.

CTB-1 = assay type: functional, cell-based
Description: SANGER: Inhibition of human CTB-1 cell growth in a cell viability assay.

P30-OHK = assay type: functional, cell-based;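 also: growth inhibition of the P30-OHK cell line, read out with a cell viability assay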
Description: SANGER: Inhibition of human P30-OHK cell growth in a cell viability assay.

LC-2-ad = assay type: functional, cell-based;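 also: growth inhibition of human LC-2-ad cells, read out with a cell viability assay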
Description: SANGER: Inhibition of human LC-2-ad cell growth in a cell viability assay.

A3-KAW = assay type: functional, cell-based;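 also: growth inhibition of human A3-KAW cells, read out with a cell viability assay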
Description: SANGER: Inhibition of human A3-KAW cell growth in a cell viability assay.

SW684 = assay type: functional, cell-based;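 also: growth inhibition of human SW684 cells, measured by a cell viability assay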
Description: SANGER: Inhibition of human SW684 cell growth in a cell viability assay.

SF-539 = assay type: functional, cell-based;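 also: Read-out is a cell viability assay, with IC50 reflecting inhibition of cell growth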
Description: SANGER: Inhibition of human SF539 cell growth in a cell viability assay.

NH-12 = assay type: functional, cell-based;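 also: growth inhibition of NH-12 cells, read out with a cell viability assay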
Description: SANGER: Inhibition of human NH-12 cell growth in a cell viability assay.

U-87 MG = assay type: functional, cell-based, U-87MG ATCC;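 also: growth inhibition of the cells measured with a viability assay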
Description: SANGER: Inhibition of human U-87-MG cell growth in a cell viability assay.

NB13 = assay type: functional, cell-based;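 also: cell viability readout measuring growth inhibition of human NB13 cells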
Description: SANGER: Inhibition of human NB13 cell growth in a cell viability assay.

BV-173 = assay type: functional, cell-based
Description: SANGER: Inhibition of human BV-173 cell growth in a cell viability assay.

TE-11 = assay type: functional, cell-based;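 also: growth inhibition of human TE-11 cells, read out by a cell viability assay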
Description: SANGER: Inhibition of human TE-11 cell growth in a cell viability assay.

NCI-H1581 = assay type: functional, cell-based;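 also: cell growth inhibition read out by a viability assay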
Description: SANGER: Inhibition of human NCI-H1581 cell growth in a cell viability assay.

KM12 = assay type: functional, cell-based;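 also: KM12 cell growth inhibition, read out with a cell viability assay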
Description: SANGER: Inhibition of human KM12 cell growth in a cell viability assay.

NB69 = assay type: functional, cell-based;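 also: growth inhibition of NB69 cells, determined by a cell viability assay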
Description: SANGER: Inhibition of human NB69 cell growth in a cell viability assay.

LS-411N = assay type: functional, cell-based
EW-1 = assay type: functional, cell-based
Description: SANGER: Inhibition of human EW-1 cell growth in a cell viability assay.

SJSA-1 = assay type: functional, cell-based;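 also: growth inhibition of human SJSA-1 cells, read out through a cell viability measurement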
Description: SANGER: Inhibition of human SJSA-1 cell growth in a cell viability assay.

EM-2 = assay type: functional, cell-based;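 also: growth inhibition of EM-2 cells, read out with a cell viability assay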
Description: SANGER: Inhibition of human EM-2 cell growth in a cell viability assay.

CAS-1 = assay type: functional, cell-based;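 also: growth inhibition of CAS-1 cells, measured with a cell viability assay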
Description: SANGER: Inhibition of human CAS-1 cell growth in a cell viability assay.

ACN = assay type: functional, cell-based;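 also: growth inhibition of the human ACN cell line, read out via cell viability testing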
Description: SANGER: Inhibition of human ACN cell growth in a cell viability assay.

D-502MG = assay type: functional, cell-based
Description: SANGER: Inhibition of human D-502MG cell growth in a cell viability assay.

HCE-4 = assay type: functional, cell-based;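 also: cell viability assay measuring inhibition of growth in the human HCE-4 cell line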
Description: SANGER: Inhibition of human HCE-4 cell growth in a cell viability assay.

DOHH-2 = assay type: functional, cell-based;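 also: growth inhibition of human DOHH-2 cells, read out with a cell viability assay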
Description: SANGER: Inhibition of human DOHH-2 cell growth in a cell viability assay.

QIMR-WIL = assay type: functional, cell-based;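 also: growth inhibition of QIMR-WIL cells, read out with a cell viability assay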
Description: SANGER: Inhibition of human QIMR-WIL cell growth in a cell viability assay.

NMC-G1 = assay type: functional, cell-based;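 also: growth inhibition of the NMC-G1 cell line, measured with a cell viability read-out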
Description: SANGER: Inhibition of human NMC-G1 cell growth in a cell viability assay.

EW-16 = assay type: functional, cell-based;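 also: growth inhibition of human EW-16 cells, read out as cell viability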
Description: SANGER: Inhibition of human EW-16 cell growth in a cell viability assay.

ALL-PO = assay type: functional, cell-based;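 also: growth inhibition of ALL-PO cells, read out by a cell viability assay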
Description: SANGER: Inhibition of human ALL-PO cell growth in a cell viability assay.

EW-18 = assay type: functional, cell-based;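 also: growth inhibition of EW-18 cells, read out by a cell viability assay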
Description: SANGER: Inhibition of human EW-18 cell growth in a cell viability assay.

BB30-HNC = assay type: functional, cell-based;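 also: growth inhibition of the cultured cell line, read out by a cell viability assay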
Description: SANGER: Inhibition of human BB30-HNC cell growth in a cell viability assay.

TE-1 = assay type: functional, cell-based
Description: SANGER: Inhibition of human TE-1 cell growth in a cell viability assay.

COLO-668 = assay type: functional, cell-based
Description: SANGER: Inhibition of human COLO-668 cell growth in a cell viability assay.

BB65-RCC = assay type: functional, cell-based;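 also: growth inhibition of the cell line, measured with a cell viability assay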
Description: SANGER: Inhibition of human BB65-RCC cell growth in a cell viability assay.

MHH-NB-11 = assay type: functional, cell-based;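 also: growth inhibition of human MHH-NB-11 cells, read out by a cell viability assay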
Description: SANGER: Inhibition of human MHH-NB-11 cell growth in a cell viability assay.

LS-1034 = assay type: functional, cell-based
Description: SANGER: Inhibition of human LS-1034 cell growth in a cell viability assay.

KGN = assay type: functional, cell-based;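 also: growth inhibition of KGN cells, read out with a cell viability assay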
Description: SANGER: Inhibition of human KGN cell growth in a cell viability assay.

EW-3 = assay type: functional, cell-based;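 also: cell viability assay read-out, IC50 reflects inhibition of growth of the EW-3 cells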
Description: SANGER: Inhibition of human EW-3 cell growth in a cell viability assay.

Cn1c(=O)n(-c2ccc(C(C)(C)C#N)cc2)c2c3cc(-c4cnc5ccccc5c4)ccc3ncc21 [DACTOLISIB]
IC50 (D283 Med): 0.0496 µM
IC50 (COR-L88): 0.848 µM
IC50 (ML-2): 0.0606 µM
IC50 (NCI-H23): 0.219 µM
IC50 (MPP-89): 0.0253 µM
IC50 (PSN1): 0.0444 µM
IC50 (HT-144): 0.196 µM
IC50 (LB771-HNC): 0.286 µM
IC50 (HCE-T): 0.0837 µM
IC50 (SNU-5): 0.337 µM
IC50 (COLO-829): 0.296 µM
IC50 (LU-139): 0.00777 µM
IC50 (NCI-H2126): 0.148 µM
IC50 (OS-RC-2): 0.0165 µM
IC50 (IA-LM): 0.108 µM
IC50 (LS-123): 0.0922 µM
IC50 (ES7): 0.0181 µM
IC50 (CW-2): 0.27 µM
IC50 (LB2241-RCC): 0.014 µM
IC50 (NCI-H209): 0.0173 µM
IC50 (TE-8): 0.0665 µM
IC50 (A4-Fuk): 0.0465 µM
IC50 (A498): 0.0752 µM
IC50 (NCI-H226): 0.708 µM
IC50 (SW872): 0.0646 µM
IC50 (8-MG-BA): 0.0373 µM
IC50 (CTB-1): 0.0247 µM
IC50 (P30-OHK): 0.0835 µM
IC50 (LC-2-ad): 0.159 µM
IC50 (A3-KAW): 0.0286 µM
IC50 (SW684): 0.196 µM
IC50 (SF-539): 0.0523 µM
IC50 (NH-12): 0.133 µM
IC50 (U-87 MG): 0.301 µM
IC50 (NB13): 0.118 µM
IC50 (BV-173): 0.0239 µM
IC50 (TE-11): 0.056 µM
IC50 (NCI-H1581): 0.064 µM
IC50 (KM12): 0.236 µM
IC50 (NB69): 0.0225 µM
IC50 (LS-411N): 0.187 µM
IC50 (EW-1): 0.12 µM
IC50 (SJSA-1): 0.0385 µM
IC50 (EM-2): 0.0544 µM
IC50 (CAS-1): 0.207 µM
IC50 (ACN): 0.0818 µM
IC50 (D-502MG): 0.106 µM
IC50 (HCE-4): 0.262 µM
IC50 (DOHH-2): 0.0464 µM
IC50 (QIMR-WIL): 0.0306 µM
IC50 (NMC-G1): 0.121 µM
IC50 (EW-16): 0.018 µM
IC50 (ALL-PO): 0.416 µM
IC50 (EW-18): 0.0319 µM
IC50 (BB30-HNC): 0.131 µM
IC50 (TE-1): 0.223 µM
IC50 (COLO-668): 0.706 µM
IC50 (BB65-RCC): 0.0127 µM
IC50 (MHH-NB-11): 0.629 µM
IC50 (LS-1034): 0.491 µM
IC50 (KGN): 0.0563 µM

CC(=O)c1c(C)c2cnc(Nc3ccc(N4CCNCC4)cn3)nc2n(C2CCCC2)c1=O [PALBOCICLIB]
IC50 (D283 Med): 2.72 µM
IC50 (COR-L88): > 4 µM
IC50 (ML-2): 1.21 µM
IC50 (NCI-H23): > 4 µM
IC50 (MPP-89): > 4 µM
IC50 (PSN1): > 4 µM
IC50 (HT-144): > 4 µM
IC50 (LB771-HNC): > 4 µM
IC50 (HCE-T): > 4 µM
IC50 (SNU-5): > 4 µM
IC50 (LU-139): > 4 µM
IC50 (OS-RC-2): 0.522 µM
IC50 (IA-LM): > 4 µM
IC50 (LS-123): > 4 µM
IC50 (ES7): 0.273 µM
IC50 (CW-2): > 4 µM
IC50 (LB2241-RCC): 1.19 µM
IC50 (NCI-H209): > 4 µM
IC50 (TE-8): 1.42 µM
IC50 (A4-Fuk): > 4 µM
IC50 (A498): > 4 µM
IC50 (NCI-H226): > 4 µM
IC50 (SW872): 1.98 µM
IC50 (8-MG-BA): > 4 µM
IC50 (CTB-1): 0.405 µM
IC50 (P30-OHK): > 4 µM
IC50 (LC-2-ad): > 4 µM
IC50 (A3-KAW): 1.08 µM
IC50 (SW684): > 4 µM
IC50 (SF-539): > 4 µM
IC50 (NH-12): > 4 µM
IC50 (U-87 MG): > 4 µM
IC50 (NB13): > 4 µM
IC50 (BV-173): 0.652 µM
IC50 (TE-11): 1.05 µM
IC50 (NCI-H1581): > 4 µM
IC50 (KM12): 1.82 µM
IC50 (NB69): 0.162 µM
IC50 (LS-411N): > 4 µM
IC50 (EW-1): > 4 µM
IC50 (SJSA-1): 2.38 µM
IC50 (EM-2): 0.651 µM
IC50 (CAS-1): > 4 µM
IC50 (ACN): > 4 µM
IC50 (D-502MG): > 4 µM
IC50 (HCE-4): > 4 µM
IC50 (DOHH-2): > 4 µM
IC50 (QIMR-WIL): 1.13 µM
IC50 (EW-3): 0.809 µM
IC50 (NMC-G1): > 4 µM
IC50 (EW-16): 0.604 µM
IC50 (ALL-PO): > 4 µM
IC50 (EW-18): > 4 µM
IC50 (BB30-HNC): > 4 µM
IC50 (TE-1): > 4 µM
IC50 (COLO-668): > 4 µM
IC50 (BB65-RCC): 1.51 µM
IC50 (MHH-NB-11): 0.22 µM
IC50 (LS-1034): > 4 µM
IC50 (KGN): 2.82 µM
